From patent publication US20170150719A1, “FUNGICIDAL PYRAZOLES AND THEIR MIXTURES” (E I DU PONT DE NEMOURS AND COMPANY, priority 2010, published 2017)
Marks after values point to notes of the source that are not given here.

Legend:
[1] = tested on: Septoria nodorum; experiment: Test E: Septoria glume blotch, preventive spray on wheat seedlings, visual disease rating; details: for Test E rating (% disease control): Septoria glume blotch on wheat, preventive spray, rating without asterisk
[2] = tested on: Blumeria graminis f. sp. tritici; experiment: Test I: wheat powdery mildew, preventive spray on wheat seedlings, visual disease rating; details: for Test I rating (% disease control): preventive spray, rating without asterisk
[3] = tested on: Botrytis cinerea; experiment: Test A: tomato Botrytis, preventive spray on tomato seedlings, visual disease rating; details: for Test A rating (% disease control): preventive spray, 0 = no control relative to controls, rating without asterisk
[4] = tested on: Puccinia recondita f. sp. tritici; experiment: Test H: wheat leaf rust, preventive spray on wheat seedlings, visual disease rating; details: for Test H rating (disease control): sprayed the day before inoculation; for Test H rating (% disease control): preventive spray, rating without asterisk
[5] = tested on: Alternaria solani; experiment: Test B: tomato early blight, preventive spray on tomato seedlings, visual disease rating; details: for Test B rating (disease control) / Test B rating (% disease control): 100 = 100% disease control; for Test B rating (disease control): 0 = no disease control relative to the controls; for Test B rating (% disease control): preventive spray, rating without asterisk
[6] = tested on: Septoria tritici; experiment: Test F: wheat leaf blotch, preventive spray on wheat seedlings, visual disease rating; assay type: in vivo; set-up: Test F rating (disease control), value marked *: concentration or dose not given beside the values; details: for Test F rating (% disease control): preventive spray, rating without asterisk
Source text: (§1) A hyphen (-) indicates no test results.

[7] = tested on: Puccinia recondita f. sp. tritici; experiment: Test G: wheat leaf rust, spray after inoculation (curative) on wheat seedlings, visual disease rating; assay type: in vivo; details: for Test G rating (% disease control): spray after inoculation, rating without asterisk
Source text: as §1

[8] = sprayed after inoculation, 100 = 100% disease control, 0 = no disease control
[9] = Septoria glume blotch, 100 = 100% disease control, 0 = no disease control relative to the controls
[10] = wheat powdery mildew, 100 = 100% disease control, 0 = no disease control relative to the controls
[11] = tomato Botrytis, 100 = 100% disease control, 0 = no disease control relative to the controls
[12] = wheat leaf rust, 100 = 100% disease control, 0 = no disease control
[13] = 100 = 100% disease control, 0 = no disease control relative to the controls
[14] = wheat powdery mildew, 100 = 100% disease control
[15] = tomato Botrytis, 100 = 100% disease control
[16] = wheat leaf rust, 100 = 100% disease control

Compound	Test E rating (disease control) [1, 9]	Test I rating (disease control) [2, 10]	Test A rating (disease control) [3, 11]	Test H rating (disease control) [4, 12]	Test B rating (disease control) ([5]; tomato early blight)	Test F rating (disease control) [6, 13]	Test G rating (disease control) [7, 8]	further results
Cc1nn(C)c(Oc2ccc(C#N)cc2Cl)c1-c1ccc(F)cc1F [Compound 140, 3-chloro-4-[[4-(2,4-difluorophenyl)-1,3-dimethyl-1H-pyrazol-5-yl]oxy]benzonitrile]	–	–	–	–	–	–	–	pest or weed control at 200 µg/mL ([1]; Parastagonospora nodorum, in Triticum aestivum, read-out: Test E rating (disease control), Septoria glume blotch, 100 = 100% disease control, 0 = no disease control relative to the controls): 0%; pest or weed control at 200 µg/mL ([2]; Blumeria graminis, in Triticum aestivum, read-out: Test I rating (disease control), wheat powdery mildew, 100 = 100% disease control, 0 = no disease control relative to the controls): 97%; pest or weed control at 200 µg/mL ([3]; Botrytis cinerea, in Solanum lycopersicum, read-out: Test A rating (disease control), tomato Botrytis, 100 = 100% disease control, 0 = no disease control relative to the controls): 67%; pest or weed control at 200 µg/mL ([4]; read-out: Test H rating (disease control), wheat leaf rust, sprayed the day before inoculation, 100 = 100% disease control, 0 = no disease control): 97%; pest or weed control at 200 µg/mL ([5]; Alternaria solani, in Solanum lycopersicum, read-out: Test B rating (disease control)): 0%; pest or weed control at 200 µg/mL ([6]; Zymoseptoria tritici, 100 = 100% disease control, 0 = no disease control relative to the controls): 100%; pest or weed control at 200 µg/mL [7, 8]: 9%
COc1cc(F)c(-c2c(C)nn(C)c2Oc2c(F)cccc2F)c(F)c1 [compound 22]	78%	99%	100%	100%	100%	100%	98%	–
Cc1nn(C)c(Nc2ccc(F)cc2F)c1-c1c(Cl)cccc1Cl [compound 113]	0%	100%	100%	98%	0%	100%	0%	–
Cc1nn(C)c(Oc2ccc(C#N)cc2F)c1-c1ccc(F)cc1F [compound 159]	–	–	–	–	–	–	–	Test E rating (disease control), value marked * ([1]; Septoria glume blotch, rating marked with asterisk (*), other test condition, not explained in the text shown): 86* %; Test I rating (disease control), value marked * ([2]; wheat powdery mildew, rating marked with asterisk (*), not explained in the text shown): 96* %; Test A rating (disease control), value marked * ([3]; tomato Botrytis, rating marked with asterisk (*), other test condition, not explained in the text shown): 100* %; Test H rating (disease control), value marked * ([4]; wheat leaf rust, preventive, rating marked with asterisk (*), not explained in the text shown): 98* %; Test B rating (disease control), value marked * ([5]; tomato early blight, rating marked with asterisk (*), other test condition, not explained in the text shown): 97* %; Test F rating (disease control), value marked * ([6]; rating marked with asterisk (*), other test condition, not explained in the text shown): 100* %; Test G rating (disease control), value marked * ([7]; sprayed after inoculation, rating marked with asterisk (*), not explained in the text shown): 0* %
Cc1nn(C)c(Nc2ccc(F)cc2F)c1-c1c(F)cccc1F [compound 49]	80%	100%	100%	83%	100%	98%	0%	–
Cc1nn(C)c(Nc2c(F)cc(Cl)cc2I)c1-c1ccc(F)cc1Cl [compound 182]	–	–	–	–	–	–	–	Test E rating (% disease control) ([1]; 100 = 100% disease control): 100%; Test I rating (% disease control) [2, 14]: 100%; Test A rating (% disease control) [3, 15]: 100%; Test H rating (% disease control) [4, 16]: 100%; Test B rating (% disease control) ([5]; tomato early blight): 100%; Test F rating (% disease control) ([6]; 100 = 100% disease control): 100%; Test G rating (% disease control) ([7]; 100 = 100% disease control): 100%
Cc1nn(C)c(Nc2c(F)cc(I)cc2F)c1-c1ccc(F)cc1Br [compound 218]	–	–	–	–	–	–	–	Test E rating (% disease control) ([1]; 100 = 100% disease control): 86%; Test I rating (% disease control) [2, 14]: 99%; Test A rating (% disease control) [3, 15]: 100%; Test H rating (% disease control) [4, 16]: 99%; Test B rating (% disease control) ([5]; tomato early blight): 68%; Test F rating (% disease control) ([6]; 100 = 100% disease control): 100%; Test G rating (% disease control) ([7]; 100 = 100% disease control): 0%
Cc1nn(C)c(Nc2ccc(F)cc2F)c1-c1ccccc1Cl [compound 97]	0%	100%	99%	96%	99%	100%	0%	–
CCOc1ccc(Nc2c(-c3ccc(F)cc3Cl)c(C)nn2C)c(Cl)c1 [compound 104]	0%	99%	100%	97%	0%	100%	0%	–
COc1cc(F)c(Nc2c(-c3ccc(Cl)cc3Cl)c(C)nn2C)c(F)c1 [compound 16]	84%	99%	99%	99%	98%	98%	98%	–
Cc1nn(C)c(Nc2c(F)cc(Cl)cc2Cl)c1-c1ccc(Cl)cc1F [compound 231]	–	–	–	–	–	–	–	Test E rating (% disease control) ([1]; 100 = 100% disease control): 0%; Test I rating (% disease control) [2, 14]: 99%; Test A rating (% disease control) [3, 15]: 33%; Test H rating (% disease control) [4, 16]: 94%; Test B rating (% disease control) ([5]; tomato early blight): 58%; Test F rating (% disease control) ([6]; 100 = 100% disease control): 100%; Test G rating (% disease control) ([7]; 100 = 100% disease control): 9%
